From PubChem BioAssay AID248 (DTP/NCI, 2004)
“And” between values parts separate entries of the source, which are not always exact repeats. Equal entries are not always repeated. Toxic doses and inconclusive results are not listed.

Test system: L1210 leukemia ip in BDF1 mice, survival T/C
Assay: NCI In Vivo Anticancer Drug Screen. Data for tumor model L1210 Leukemia (intraperitoneal) in B6D2F1 (BDF1) mice
Settings: endpoint: mean survival time, higher = longer survival
How it was run: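 Value reflects the ratio of survival in compound-treated mice to survival in vehicle-treated controls, with both groups carrying the same transplanted tumor.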

C[n+]1ccc(Nc2ccc(NC(=O)c3ccc(Nc4cc[n+](C)c5ccc(N)cc45)cc3N)cc2)cc1
T/C (dose: 0.25 mg/kg/injection, schedule: Q01DX005 (iv), vehicle: water): 104 % of control
T/C (dose: 0.5 mg/kg/injection, schedule: Q01DX005 (iv), vehicle: water): 97 % of control and 107 % of control
T/C (dose: 0.5 mg/kg/injection, schedule: Q01DX009 (ip), vehicle: water): 113 % of control
T/C (dose: 0.5 mg/kg/injection, schedule: Q03HX008 (ip), vehicle: water): 115 % of control
T/C (dose: 0.5 mg/kg/injection, schedule: Q03HX016 (ip), vehicle: water): 121 % of control
T/C (dose: 0.5 mg/kg/injection, schedule: Q03HX024 (sc), vehicle: water): 104 % of control
T/C (dose: 0.5 mg/kg/injection, schedule: Q04DX003 (iv), vehicle: water): 104 % of control
T/C (dose: 0.78 mg/kg/injection, schedule: Q01DX009 (ip), vehicle: saline): 100 % of control
T/C (dose: 1.0 mg/kg/injection, schedule: Q01DX005 (iv), vehicle: water): 104 % of control and 105 % of control
T/C (dose: 1.0 mg/kg/injection, schedule: Q01DX009 (ip), vehicle: water): 118 % of control
T/C (dose: 1.0 mg/kg/injection, schedule: Q01DX009 (oral), vehicle: water): 109 % of control
T/C (dose: 1.0 mg/kg/injection, schedule: Q01DX009 (sc), vehicle: saline with Tween-80): 101 % of control
T/C (dose: 1.0 mg/kg/injection, schedule: Q01DX009 (sc), vehicle: water): 106 % of control
T/C (dose: 1.0 mg/kg/injection, schedule: Q03HX016 (ip), vehicle: water): 159 % of control
T/C (dose: 1.0 mg/kg/injection, schedule: Q03HX024 (ip), vehicle: water): 165 % of control
T/C (dose: 1.0 mg/kg/injection, schedule: Q03HX024 (oral), vehicle: water): 94 % of control and 103 % of control
T/C (dose: 1.0 mg/kg/injection, schedule: Q03HX024 (sc), vehicle: water): 114 % of control
T/C (dose: 1.0 mg/kg/injection, schedule: Q04DX003 (iv), vehicle: water): 102 % of control
T/C (dose: 1.56 mg/kg/injection, schedule: Q01DX009 (ip), vehicle: saline): 114 % of control
T/C (dose: 2.0 mg/kg/injection, schedule: Q01DX001 (ip), vehicle: water): 106 % of control
T/C (dose: 2.0 mg/kg/injection, schedule: Q01DX002 (ip), vehicle: water): 110 % of control
T/C (dose: 2.0 mg/kg/injection, schedule: Q01DX005 (iv), vehicle: water): 115 % of control and 116 % of control
T/C (dose: 2.0 mg/kg/injection, schedule: Q01DX009 (ip), vehicle: water): 151 % of control and 157 % of control and 205 % of control
T/C (dose: 2.0 mg/kg/injection, schedule: Q01DX009 (oral), vehicle: water): 107 % of control
T/C (dose: 2.0 mg/kg/injection, schedule: Q03HX008 (ip), vehicle: water): 155 % of control and 170 % of control
T/C (dose: 2.0 mg/kg/injection, schedule: Q03HX016 (ip), vehicle: water): 158 % of control and 216 % of control
T/C (dose: 2.0 mg/kg/injection, schedule: Q03HX024 (ip), vehicle: water): 225 % of control and 236 % of control
T/C (dose: 2.0 mg/kg/injection, schedule: Q03HX024 (oral), vehicle: water): 102 % of control and 103 % of control
T/C (dose: 2.0 mg/kg/injection, schedule: Q03HX024 (sc), vehicle: water): 180 % of control
T/C (dose: 2.0 mg/kg/injection, schedule: Q04DX003 (ip), vehicle: water): 105 % of control
T/C (dose: 2.0 mg/kg/injection, schedule: Q04DX003 (iv), vehicle: water): 104 % of control
T/C (dose: 4.0 mg/kg/injection, schedule: Q01DX001 (ip), vehicle: water): 116 % of control
T/C (dose: 4.0 mg/kg/injection, schedule: Q01DX002 (ip), vehicle: water): 117 % of control
T/C (dose: 4.0 mg/kg/injection, schedule: Q01DX009 (ip), vehicle: water): 243 % of control and 248 % of control and 456 % of control
T/C (dose: 4.0 mg/kg/injection, schedule: Q01DX009 (oral), vehicle: water): 106 % of control
T/C (dose: 4.0 mg/kg/injection, schedule: Q01DX009 (sc), vehicle: water): 214 % of control
T/C (dose: 4.0 mg/kg/injection, schedule: Q03HX008 (ip), vehicle: water): 165 % of control and 252 % of control
T/C (dose: 4.0 mg/kg/injection, schedule: Q03HX016 (ip), vehicle: water): 178 % of control and 326 % of control
T/C (dose: 4.0 mg/kg/injection, schedule: Q03HX024 (ip), vehicle: water): 233 % of control and 329 % of control
T/C (dose: 4.0 mg/kg/injection, schedule: Q03HX024 (oral), vehicle: water): 100 % of control and 110 % of control
T/C (dose: 4.0 mg/kg/injection, schedule: Q03HX024 (sc), vehicle: water): 203 % of control
T/C (dose: 4.0 mg/kg/injection, schedule: Q04DX003 (ip), vehicle: water): 120 % of control
T/C (dose: 4.0 mg/kg/injection, schedule: Q04DX003 (iv), vehicle: water): 102 % of control
T/C (dose: 6.25 mg/kg/injection, schedule: Q01DX009 (ip), vehicle: saline): 161 % of control
T/C (dose: 8.0 mg/kg/injection, schedule: Q01DX001 (ip), vehicle: water): 116 % of control
T/C (dose: 8.0 mg/kg/injection, schedule: Q01DX005 (ip), vehicle: water): 256 % of control
T/C (dose: 8.0 mg/kg/injection, schedule: Q01DX009 (ip), vehicle: water): 326 % of control and 417 % of control and 436 % of control
T/C (dose: 8.0 mg/kg/injection, schedule: Q01DX009 (oral), vehicle: water): 98 % of control and 103 % of control and 111 % of control
T/C (dose: 8.0 mg/kg/injection, schedule: Q01DX009 (sc), vehicle: water): 195 % of control
T/C (dose: 8.0 mg/kg/injection, schedule: Q03HX008 (ip), vehicle: water): 178 % of control
T/C (dose: 8.0 mg/kg/injection, schedule: Q03HX024 (ip), vehicle: water): 153 % of control
T/C (dose: 8.0 mg/kg/injection, schedule: Q03HX024 (oral), vehicle: water): 100 % of control
T/C (dose: 8.0 mg/kg/injection, schedule: Q03HX024 (sc), vehicle: water): 163 % of control
T/C (dose: 8.0 mg/kg/injection, schedule: Q04DX003 (ip), vehicle: water): 150 % of control
T/C (dose: 10.0 mg/kg/injection, schedule: Q01DX009 (oral), vehicle: saline with Tween-80): 100 % of control
T/C (dose: 12.5 mg/kg/injection, schedule: Q01DX009 (ip), vehicle: saline): 231 % of control
T/C (dose: 16.0 mg/kg/injection, schedule: Q01DX001 (ip), vehicle: water): 161 % of control
T/C (dose: 16.0 mg/kg/injection, schedule: Q01DX002 (ip), vehicle: water): 155 % of control
T/C (dose: 16.0 mg/kg/injection, schedule: Q01DX005 (ip), vehicle: water): 225 % of control
T/C (dose: 16.0 mg/kg/injection, schedule: Q01DX009 (ip), vehicle: water): 382 % of control
T/C (dose: 16.0 mg/kg/injection, schedule: Q01DX009 (oral), vehicle: water): 98 % of control and 103 % of control
T/C (dose: 16.0 mg/kg/injection, schedule: Q01DX009 (sc), vehicle: water): 230 % of control
T/C (dose: 16.0 mg/kg/injection, schedule: Q04DX003 (ip), vehicle: water): 167 % of control and 168 % of control and 190 % of control
T/C (dose: 16.0 mg/kg/injection, schedule: Q08DX002 (ip), vehicle: water): 171 % of control
T/C (dose: 20.0 mg/kg/injection, schedule: Q01DX009 (oral), vehicle: saline with Tween-80): 104 % of control
T/C (dose: 25.0 mg/kg/injection, schedule: Q01DX001 (ip), vehicle: saline): 108 % of control
T/C (dose: 25.0 mg/kg/injection, schedule: Q01DX009 (ip), vehicle: saline): 364 % of control
T/C (dose: 32.0 mg/kg/injection, schedule: Q01DX009 (oral), vehicle: water): 100 % of control
T/C (dose: 50.0 mg/kg/injection, schedule: Q01DX001 (ip), vehicle: saline): 161 % of control
T/C (dose: 50.0 mg/kg/injection, schedule: Q01DX009 (ip), vehicle: saline): 331 % of control
T/C (dose: 64.0 mg/kg/injection, schedule: Q01DX009 (oral), vehicle: water): 106 % of control and 109 % of control
T/C (dose: 80.0 mg/kg/injection, schedule: Q01DX009 (oral), vehicle: saline with Tween-80): 106 % of control
T/C (dose: 160.0 mg/kg/injection, schedule: Q01DX009 (oral), vehicle: saline with Tween-80): 101 % of control
T/C (dose: 200.0 mg/kg/injection, schedule: Q01DX001 (ip), vehicle: saline): 257 % of control
